Experimental data from paper PMC3526353 (The Journal of Experimental Medicine, 2012).

Target: receptor for advanced glycation end products (RAGE) (Homo sapiens, UniProt Q15109)
Assay: SPR
Assay type: binding

receptor for advanced glycation end products (RAGE), sequence (Q15109 23-342 limits assumed): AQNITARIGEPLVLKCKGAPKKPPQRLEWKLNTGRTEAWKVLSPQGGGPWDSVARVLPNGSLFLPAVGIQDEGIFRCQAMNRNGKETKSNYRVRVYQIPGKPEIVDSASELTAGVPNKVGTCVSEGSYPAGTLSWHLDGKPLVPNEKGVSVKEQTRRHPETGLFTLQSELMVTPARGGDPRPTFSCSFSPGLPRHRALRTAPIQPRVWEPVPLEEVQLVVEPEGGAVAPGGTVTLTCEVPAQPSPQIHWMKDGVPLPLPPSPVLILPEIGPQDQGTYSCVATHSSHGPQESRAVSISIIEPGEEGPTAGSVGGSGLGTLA

Kd: 84.9 nM
Structure (SMILES): CCCCCCCC/C=C\CCCCCCCC(=O)OC[C@@H](O)COP(=O)(O)O [LPA, 1-oleoyl-2-hydroxy-sn-glycero-3-phosphate]
